Experimental data taken from PubChem BioAssay (NCI).
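These data come from cells grown in 96-well plates and exposed to compound for 48 hours at five concentrations. TGI is the concentration that stops growth completely.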

What was measured:
Assay in all cases: NCI-60 cell line screen, 48 h
EKVX NSCLC = tested on: EKVX NSCLC
HT29 colon = tested on: HT29 colon
NCI-H226 lung = tested on: NCI-H226 lung
NCI/ADR-RES ovarian = tested on: NCI/ADR-RES ovarian
OVCAR-5 ovarian = tested on: OVCAR-5 ovarian
OVCAR-8 ovarian = tested on: OVCAR-8 ovarian
SNB-19 CNS = tested on: SNB-19 CNS
U251 CNS = tested on: U251 CNS
UACC-257 melanoma = tested on: UACC-257 melanoma
UACC-62 melanoma = tested on: UACC-62 melanoma

## COc1ccc(N2CCN(c3ccc4c(c3)NCC(=O)N4)CC2)cc1
EKVX NSCLC
  TGI: > 100 µM
HT29 colon
  TGI: > 100 µM
NCI-H226 lung
  TGI: > 100 µM
NCI/ADR-RES ovarian
  TGI: 68.5 µM
OVCAR-5 ovarian
  TGI: > 100 µM
OVCAR-8 ovarian
  TGI: > 100 µM
SNB-19 CNS
  TGI: > 100 µM
U251 CNS
  TGI: 68.6 µM
UACC-257 melanoma
  TGI: > 100 µM
UACC-62 melanoma
  TGI: 56.5 µM

## COCC(=O)[C@]1(O)Cc2c(O)c3c(c(O)c2[C@@H](OC2CC(N)C(O)C(C)O2)C1)C(=O)c1c(OC)cccc1C3=O (some centres undefined)
EKVX NSCLC
  TGI: 2.9 µM
HT29 colon
  TGI: 0.735 µM
NCI-H226 lung
  TGI: 0.665 µM
OVCAR-5 ovarian
  TGI: 1.04 µM
OVCAR-8 ovarian
  TGI: 3.95 µM
SNB-19 CNS
  TGI: 2.45 µM
U251 CNS
  TGI: 1.27 µM
UACC-257 melanoma
  TGI: 1.48 µM
UACC-62 melanoma
  TGI: 0.255 µM

## O=C1Nc2ccccc2NC1C1OC(c2ccccc2)=CC1=O (centres undefined)
EKVX NSCLC
  TGI: > 100 µM
HT29 colon
  TGI: > 100 µM
NCI-H226 lung
  TGI: > 100 µM
NCI/ADR-RES ovarian
  TGI: > 100 µM
OVCAR-5 ovarian
  TGI: > 100 µM
OVCAR-8 ovarian
  TGI: > 100 µM
SNB-19 CNS
  TGI: > 100 µM
U251 CNS
  TGI: > 100 µM
UACC-257 melanoma
  TGI: > 100 µM
UACC-62 melanoma
  TGI: > 100 µM

## CCCCCC(/C=C/[C@@H]1CC(=O)C[C@H]1O[Si](C)(C)C(C)(C)C)OCOCCOC (some centres undefined)
EKVX NSCLC
  TGI: 23.7 µM
HT29 colon
  TGI: 10.1 µM
NCI-H226 lung
  TGI: 18.8 µM
NCI/ADR-RES ovarian
  TGI: 10.5 µM
OVCAR-5 ovarian
  TGI: 28.8 µM
OVCAR-8 ovarian
  TGI: 18.3 µM
SNB-19 CNS
  TGI: 12.9 µM
U251 CNS
  TGI: 8.08 µM
UACC-257 melanoma
  TGI: 11 µM
UACC-62 melanoma
  TGI: 7.64 µM

## CCOC(OCC)C(CCc1ccccc1)c1c(N)nc(N)[nH]c1=O (centres undefined)
EKVX NSCLC
  TGI: 22.3 µM
HT29 colon
  TGI: > 100 µM
NCI-H226 lung
  TGI: > 100 µM
NCI/ADR-RES ovarian
  TGI: > 100 µM
OVCAR-5 ovarian
  TGI: 73.3 µM
OVCAR-8 ovarian
  TGI: > 100 µM
SNB-19 CNS
  TGI: > 100 µM
U251 CNS
  TGI: > 100 µM
UACC-257 melanoma
  TGI: > 100 µM
UACC-62 melanoma
  TGI: > 100 µM

## O=C(c1ccc(Cl)cc1)N1N=C(c2ccc(Cl)cc2)CC1(O)c1cc(F)c(Cl)cc1Cl (centres undefined)
EKVX NSCLC
  TGI: 59.3 µM
HT29 colon
  TGI: 72.5 µM
NCI-H226 lung
  TGI: > 100 µM
NCI/ADR-RES ovarian
  TGI: > 100 µM
OVCAR-5 ovarian
  TGI: > 100 µM
OVCAR-8 ovarian
  TGI: > 100 µM
SNB-19 CNS
  TGI: > 100 µM
U251 CNS
  TGI: 37.3 µM
UACC-257 melanoma
  TGI: > 100 µM
UACC-62 melanoma
  TGI: 63.3 µM

## Brc1cccc(C2(CCCC3(c4cccc(Br)n4)OCCO3)OCCO2)n1
EKVX NSCLC
  TGI: > 100 µM
NCI-H226 lung
  TGI: > 100 µM
NCI/ADR-RES ovarian
  TGI: > 100 µM
OVCAR-5 ovarian
  TGI: > 100 µM
SNB-19 CNS
  TGI: > 100 µM
UACC-257 melanoma
  TGI: > 100 µM

## COC(=O)C1(NC(=O)C(N)CC(=O)O)C(C)C1C (centres undefined)
EKVX NSCLC
  TGI: > 100 µM
HT29 colon
  TGI: > 100 µM
NCI-H226 lung
  TGI: > 100 µM
NCI/ADR-RES ovarian
  TGI: > 100 µM
OVCAR-5 ovarian
  TGI: > 100 µM
OVCAR-8 ovarian
  TGI: > 100 µM
SNB-19 CNS
  TGI: > 100 µM
U251 CNS
  TGI: > 100 µM
UACC-257 melanoma
  TGI: > 100 µM
UACC-62 melanoma
  TGI: > 100 µM

## CC(C)(C)OC(=O)NC(CCCCNC(=O)OCc1ccccc1)C(=O)NC(CCCCNC(=O)OCc1ccccc1)C(=O)ON1C(=O)CCC1=O (centres undefined)
EKVX NSCLC
  TGI: > 100 µM
HT29 colon
  TGI: > 100 µM
NCI-H226 lung
  TGI: > 100 µM
OVCAR-5 ovarian
  TGI: > 100 µM
OVCAR-8 ovarian
  TGI: > 100 µM
SNB-19 CNS
  TGI: > 100 µM
U251 CNS
  TGI: > 100 µM
UACC-257 melanoma
  TGI: > 100 µM
UACC-62 melanoma
  TGI: > 100 µM

## Oc1[nH]c2ccccc2c1N=NC(=S)N1CCCCCC1
EKVX NSCLC
  TGI: 6.8 µM
HT29 colon
  TGI: 10.8 µM
NCI-H226 lung
  TGI: 4.45 µM
NCI/ADR-RES ovarian
  TGI: 1.42 µM
OVCAR-5 ovarian
  TGI: 12.4 µM
OVCAR-8 ovarian
  TGI: 2.67 µM
SNB-19 CNS
  TGI: 15.4 µM
U251 CNS
  TGI: 8.16 µM
UACC-257 melanoma
  TGI: 5.88 µM
UACC-62 melanoma
  TGI: 2.5 µM
